From patent US20170239173A1, “TRANSDERMAL ABSORPTION ENHANCER AND TRANSDERMAL ABSORPTION ENHANCEMENT AID” (ASAHI KASEI KABUSHIKI KAISHA, priority 2014, published 2017)
“And” between values parts separate entries of the source, which are not always exact repeats. Identical values can stand only once.

Legend:
[1] = Solubility / state of the active ingredient in the preparation (equimolar salt or enhancer); format: physicochemical; conditions: solubility of MZR in the equimolar salt of the basic compound a) with isostearic acid or linoleic acid
[2] = test system: hairless mouse skin (Laboskin)
[3] = partition coefficient between water and 1-octanol; cited from earlier work

CCn1cc[n+](C)c1.O=S(=O)([O-])C(F)(F)F
MZR dissolution [1]: Insoluble

COP(=O)([O-])OC.Cn1cc[n+](C)c1
MZR dissolution [1]: Insoluble

CC(=O)O [Acetic acid]
Transdermal penetrability of MZR (hairless mouse) [2]: Not penetrated

Nc1ncnc2[nH]cnc12 [Adenine]
MZR dissolution [1]: Insoluble

N[C@H]1C(O)O[C@H](CO)[C@@H](O)[C@@H]1O (stereo partly drawn) [D-glucosamine]
Log P [3]: −2.8

CC(C)(S)[C@@H](N)C(=O)O [D-penicillamine]
Log P [3]: −1.8

CCCCCCCCCCCCCC(=O)OC(C)C [IPM, isopropyl myristate]
Log P [3]: 7.2

CC[C@H](C)[C@H](N)C(=O)O [L-Isoleucine]
Log P [3]: (LogP = −3.69)

O=C1O[C@H]([C@@H](O)CO)C(O)=C1O [L-ascorbic acid]
Log P [3]: −1.6

C[N+](C)(C)C[C@H](O)CC(=O)[O-] [L-carnitine]
Log P [3]: −0.2

N[C@@H](CS)C(=O)O [L-cysteine]
Log P [3]: −2.5

CCCCC/C=C\C/C=C\CCCCCCCC(=O)O [Linoleic acid]
Transdermal penetrability of MZR (hairless mouse) [2]: Penetrated

CC(=O)N[C@H]1C(O)O[C@H](CO)[C@@H](O)[C@@H]1O (stereo partly drawn) [N-acetyl-D-glucosamine]
Log P [3]: −1.7

O=C(O)CCC(=O)O [Succinic acid]
Transdermal penetrability of MZR (hairless mouse) [2]: Not penetrated
Log P [3]: (LogP = −0.6)

CC(O)CN(CC(C)O)CC(C)O (stereo not drawn) [TIPA]
MZR dissolution [1]: Insoluble

CCCCCCCC(=O)OCC(COC(=O)CCCCCCC)OC(=O)CCCCCCC [Tricaprylin, glycerin tricaprylate]
Log P [3]: 8.9

CC(=O)Nc1ccc(CC(=O)O)cc1 [actarit]
Log P [3]: 0.4

CC(=O)SC[C@@H](C)C(=O)N1CCC[C@H]1C(=O)N[C@@H](Cc1ccccc1)C(=O)O [alacepril]
Log P [3]: 2.1

C[C@H](N)C(=O)O [alanine]
Log P [3]: −3

NC(=O)NC1NC(=O)NC1=O (stereo not drawn) [allantoin]
Log P [3]: −2.2

CCOC(=O)C1=C(COCCN)NC(C)=C(C(=O)OC)C1c1ccccc1Cl (stereo not drawn) [amlodipine]
Log P [3]: 3

Nc1cc(-c2ccncc2)c[nH]c1=O [amrinone]
Log P [3]: −0.2

OC[C@H]1O[C@@H](Oc2ccc(O)cc2)[C@H](O)[C@@H](O)[C@@H]1O [arbutin]
Log P [3]: −0.6

CC(C)(C)NCC(O)CSc1nc(-c2ccc(C(N)=O)s2)cs1 (stereo not drawn) [arotinolol]
Log P [3]: 2.3

O=C(O)CCCCCCCC(=O)O [azelaic acid]
Log P [3]: 1.6

COc1ccc(CCNCC(O)COc2cccc(C)c2)cc1OC (stereo not drawn) [bevantolol]
Log P [3]: 3

O=C(O)CCCC[C@@H]1SC[C@@H]2NC(=O)N[C@@H]21 [biotin]
Log P [3]: 0.3

CCCC(=O)N1CCCN(c2nc(N)c3cc(OC)c(OC)cc3n2)CC1 [bunazosin]
Log P [3]: 2.2

C[C@H](CS)C(=O)N1CCC[C@H]1C(=O)O [captopril]
Log P [3]: 0.3

C[C@@](Cc1ccc(O)c(O)c1)(NN)C(=O)O [carbidopa]
Log P [3]: −2.2

NS(=O)(=O)c1cc(C2(O)NC(=O)c3ccccc32)ccc1Cl (stereo not drawn) [chlorthalidone]
Log P [3]: 0.9

C[N+](C)(C)CCO [choline]
Transdermal penetrability of MZR [2]: Penetrated
Log P [3]: (LogP = −0.4

CCOC(=O)[C@H](CCc1ccccc1)N[C@H]1CCCN2CCC[C@@H](C(=O)O)N2C1=O [cilazapril]
Log P [3]: 0.6

Clc1cccc(Cl)c1N=C1NCCN1 [clonidine]
Log P [3]: 1.6

CCOC(=O)[C@H](CCc1ccccc1)N[C@@H](C)C(=O)N(CC(=O)O)C1Cc2ccccc2C1 [delapril]
Log P [3]: 1.7

COc1ccc(CCNC[C@H](O)c2ccc(O)cc2)cc1OC [denopamine]
Log P [3]: 1.8

CCOC(=O)Oc1ccc(CCNC(=O)[C@H](CCSC)NC(C)=O)cc1OC(=O)OCC [docarpamine]
Log P [3]: 2.9

NCCc1ccc(O)c(O)c1 [dopamine]
Log P [3]: −1

CCOC(=O)[C@H](CCc1ccccc1)N[C@@H](C)C(=O)N1CCC[C@H]1C(=O)O [enalapril]
Log P [3]: −0.1

COc1cc(C)nc(-n2nc(C)cc2OC)n1 [epirizole]
Log P [3]: 1.3

COC(=O)[C@@H]1CC2=CC(=O)CC[C@]2(C)[C@@]23O[C@@H]2C[C@@]2(C)[C@@H](CC[C@@]24CCC(=O)O4)[C@H]13 [eplerenone]
Log P [3]: 1.4

CC(O)(P(=O)(O)O)P(=O)(O)O [etidronic acid]
Log P [3]: −3.7

NC(N)=Nc1nc(CSCCC(N)=NS(N)(=O)=O)cs1 [famotidine]
Log P [3]: −0.6

N[C@@H](CCC(=O)N[C@@H](CS)C(=O)NCC(=O)O)C(=O)O [glutathione]
Log P [3]: −4.5

COc1ccccc1O [guaiacol]
Log P [3]: 1.3

N=C(N)NC(=O)Cc1c(Cl)cccc1Cl [guanfacine]
Log P [3]: 2

N[C@@H](Cc1c[nH]cn1)C(=O)O [histidine]
Log P [3]: −3.2

NNc1nncc2ccccc12 [hydralazine]
Log P [3]: 0.7

Oc1ccc(O)cc1 [hydroquinone]
Log P [3]: −0.6

CCOC(=O)[C@H](CCc1ccccc1)N[C@@H](C)C(=O)N1C(=O)N(C)C[C@H]1C(=O)O [imidapril]
Log P [3]: −0.7

CC(C)NCC(O)c1ccc(O)c(O)c1 (stereo not drawn) [isoprenaline]
Log P [3]: −0.6

Cc1c(C(C)C)c(=O)n(-c2ccccc2)n1C [isopropylantipyrine]
Log P [3]: 1.7

O[C@@H]1CO[C@H]2[C@@H]1OC[C@@H]2O [isosorbide]
Log P [3]: −1.4

O=c1cc(CO)occ1O [kojic acid]
Log P [3]: −0.9

O=C(C[S+]([O-])Cc1ccco1)NC/C=C\COc1cc(CN2CCCCC2)ccn1 (stereo not drawn) [lafutidine]
Log P [3]: 1.4

Cc1c(OCC(F)(F)F)ccnc1C[S+]([O-])c1nc2ccccc2[nH]1 (stereo not drawn) [lansoprazole]
Log P [3]: 2.8

Cc1oncc1C(=O)Nc1ccc(C(F)(F)F)cc1 [leflunomide]
Log P [3]: 2.6

NCCCC[C@H](N[C@@H](CCc1ccccc1)C(=O)O)C(=O)N1CCC[C@H]1C(=O)O [lisinopril]
Log P [3]: −2.9 and −3.0

Nc1cc(N2CCCCC2)nc(N)[n+]1[O-] [loniten]
Log P [3]: 1.2

CN(CC1(C)CCCO1)S(=O)(=O)c1ccc(Cl)c(S(N)(=O)=O)c1 (stereo not drawn) [mefruside]
Log P [3]: 0.9

C[C@H]1C[C@@H]2[C@H]([C@@H](O)C[C@@]3(C)[C@H]2CC[C@]3(O)C(=O)CO)[C@@]2(C)C=CC(=O)C=C12 [methylprednisolone]
Log P [3]: 1.9

Cc1cc2c(cc1S(N)(=O)=O)S(=O)(=O)CCC2 [meticrane]
Log P [3]: 0.5

Cc1[nH]c(=O)c(C#N)cc1-c1ccncc1 [milrinone]
Log P [3]: 0

Nc1cc(N2CCCCC2)nc(N)[n+]1[O-] [minoxidil]
Log P [3]: 1.2

O=C(O)c1cccnc1 [nicotinic acid]
Log P [3]: 0.4

Cn1c(NCCN(CCO)CCCc2ccc([N+](=O)[O-])cc2)cc(=O)n(C)c1=O [nifekalant]
Log P [3]: 1.1

CNC(=C[N+](=O)[O-])NCCSCc1csc(CN(C)C)n1 [nizatidine]
Log P [3]: 1.6

CC(C)(CO)[C@@H](O)C(=O)NCCC(=O)O [pantothenic acid]
Log P [3]: −1.1

CCC[C@H](N[C@@H](C)C(=O)N1[C@H](C(=O)O)C[C@@H]2CCCC[C@@H]21)C(=O)OCC [perindopril]
Log P [3]: 0.9

Cc1ccc(N(CC2=NCCN2)c2cccc(O)c2)cc1 [phentolamine]
Log P [3]: 2.6

Cc1cccc(C)c1NC(=O)CC12CCCN1CCC2 [pilsicainide]
Log P [3]: 2.7

CN1CCN(CC(=O)N2c3ccccc3C(=O)Nc3cccnc32)CC1 [pirenzepine]
Log P [3]: 0.1

CCN(CC)CCNC(=O)c1ccc(N)cc1 [procainamide]
Log P [3]: 0.9

CCOC(=O)[C@H](CCc1ccccc1)N[C@@H](C)C(=O)N1Cc2ccccc2C[C@H]1C(=O)O [quinapril]
Log P [3]: 1.2

OC[C@H]1O[C@H](OC[C@H]2O[C@H](O[C@]3(CO)O[C@H](CO)[C@@H](O)[C@@H]3O)[C@H](O)[C@@H](O)[C@@H]2O)[C@H](O)[C@@H](O)[C@H]1O [raffinose]
Log P [3]: −5.8

O=C(NC(Cc1cc(=O)[nH]c2ccccc12)C(=O)O)c1ccc(Cl)cc1 (stereo not drawn) [rebamipide]
Log P [3]: 2.4

Oc1cccc(O)c1 [resorcin]
Log P [3]: 0.8

O=P(O)(O)C(O)(Cc1cccnc1)P(=O)(O)O [risedronate]
Log P [3]: −3.5

CCCCc1ccc(O)cc1O [rucinol]
Log P [3]: 2.4

N[C@@H](CO)C(=O)O [serine]
Log P [3]: −3.1

CC(C)NCC(O)c1ccc(NS(C)(=O)=O)cc1 (stereo not drawn) [sotalol]
Log P [3]: 0.2

C=CC[C@@H]1/C=C(\C)C[C@H](C)C[C@H](OC)[C@H]2O[C@@](O)(C(=O)C(=O)N3CCCC[C@H]3C(=O)O[C@H](/C(C)=C/[C@@H]3CC[C@@H](O)[C@H](OC)C3)[C@H](C)[C@@H](O)CC1=O)[C@H](C)C[C@@H]2OC [tacrolimus]
Log P [3]: 2.7

CCOC(=O)[C@H](CCc1ccccc1)N[C@H]1CS[C@H](c2cccs2)CN(CC(=O)O)C1=O [temocapril]
Log P [3]: 1

COc1cc2nc(N3CCN(C(=O)C4CCCO4)CC3)nc(N)c2cc1OC (stereo not drawn) [terazosin]
Log P [3]: 1.4

NCCS(=O)(O)=S [thiotaurine]
Log P [3]: −0.1

c1ccc(CC2=NCCN2)cc1 [tolazoline]
Log P [3]: 2.6

Cc1cccc(Nc2ccncc2S(=O)(=O)NC(=O)NC(C)C)c1 [torasemide]
Log P [3]: 2.7

CCOC(=O)[C@H](CCc1ccccc1)N[C@@H](C)C(=O)N1[C@H](C(=O)O)C[C@H]2CCCC[C@@H]21 [trandolapril]
Log P [3]: 2

NC[C@H]1CC[C@H](C(=O)O)CC1 [tranexamic acid]
Log P [3]: −2

Nc1nc(N)c2nc(-c3ccccc3)c(N)nc2n1 [triamterene]
Log P [3]: 1

NS(=O)(=O)c1cc2c(cc1Cl)NC(C(Cl)Cl)NS2(=O)=O (stereo not drawn) [trichlormethiazide]
Log P [3]: 0.6

N[C@@H](Cc1c[nH]c2ccccc12)C(=O)O [tryptophan]
Log P [3]: −1.1

COc1ccccc1N1CCN(CCCNc2cc(=O)n(C)c(=O)n2C)CC1 [urapidil]
Log P [3]: 1.5

COc1ccc(C(=O)N2CCN(c3ccc4c(c3)CCC(=O)N4)CC2)cc1OC [vesnarinone]
Log P [3]: 2.1
